In patent US20190169134A1, “NOVEL CLASS OF QUINOLONE HETEROCYCLIC AROMATIC MOLECULES FOR CANCER TREATMENT” (RenoTarget Therapeutics, Inc., priority 2016, published 2019):

Assays:
HCC827OR16 = experiment: Cell growth inhibition by SRB method; format: cell-based, human; conditions: AZD9291-resistant line, 72 hrs exposure
Excerpt: (§1) Six human cancer cell lines have been used to evaluate effects of the compounds on proliferation of cancer cells. These cell lines include HCC827-P (or HCC827 parent cells), human non-small lung cancer cells, Parent NSCLC HCC827 cell line (which harbors EGFR gene amplification, Exon 19 (E19) deletion, and Exon 21 mutation (Wang, Ramakrishnan et al. 2010), and is an EGFRi sensitive cell line (Kim, Kim et al. 2010)); HCC827-TR16 (Tarceva-resistant HCC727 cell line), HCC827-OR16 (AZD9291-resistant HCC727 cell line), LNCaP (human prostate cancer cells—a hormonal-therapy sensitive cell line (Wang, Liu et al. 1997)); 22RV1 (human prostate cancer cells—a hormonal-therapy resistant cell line (Sramkoski, Pretlow et al. 1999)); and ACHN (human renal adenocarcinoma cells (Park, Jung et al. 2003)). LNCaP cells and 22RV1 cells were purchased from the American Type Culture Collection (Rockville, Md.) and others were gifts of friends.
(§2) To evaluate activities of new compounds on growth of EGFR-inhibitor-resistant cells, two EGFRi-resistant cell lines, i.e., HCC827-TR16 and HCC827-OR16 were established using a method described by Eberlein et al. (Eberlein, Stetson et al. 2015). […] Resistant cells were collected and stabilized after 5 weeks (cycle 5). […] The resistant cells were sorted using 96-well dishes by culturing cells with density of 0.1, 1, 10, and 100 cells per well.
(§3) All cell lines were maintained in RPMI-1640 (GIBCO, Gaithersburg, Md.) with 10% heat-inactivated bovine serum (FBS) (Wang, Ossowski et al. 2004).
(§4) Sulforhodamine B (SRB) was used to estimate cell growth as described previously (Skehan, Storeng et al. 1990). Briefly, cells grown exponentially were aliquoted into 96-well plates at a density of 2,500 to 5,000 cells/200 μl per well in RPMI 1640 medium containing 10% FBS. After twenty-four hours, the cells were exposed to indicated concentrations of tested compounds for 72 hrs or otherwise as indicated. The cells were then fixed with 10% trichloride acetic acid for 2 h at 4° C. The 10% trichloride acetic acid was removed, and the dishes were washed 5 times with tape water, and air-dried. The fixed and dried cells were then stained with 0.4% SRB in 1% acetic acid for 25 min, and the dishes were washed 5 times with 1% acetic acid and air-dried overnight. 200 μl of 10 mM of Tris buffer (pH 10.0) were added, and the dishes were rotated to completely dissolve the color. Absorbance at 570 nm, with a reference wavelength 690 nm, was measured on a 96-well microplate reader (SPECTRO Star^Nano, BMG Labtech). Mean, standard deviation (SD) and the percent of growth inhibition at each concentration point of the treatment were calculated. The percent of growth inhibition as defined as (1−T/C)×100 where T is the mean of the absorbance at 570 nm from the treatment, and C from control (drug vehicle only). IC50 was calculated using Sigma-plot software by regression of growth-concentration curve from each drug treatment.

HCC827P = experiment: Cell growth inhibition by SRB method; format: cell-based, human; conditions: for IC50: 72 hrs exposure, SRB
Excerpt: as §1, §2, §3, §4

HCC827TR16 = experiment: Cell growth inhibition by SRB method; format: cell-based; conditions: Homo sapiens, Tarceva-resistant line, 72 hrs exposure
Excerpt: as §1, §2, §3, §4

22RV1 = experiment: Cell growth inhibition by SRB method; format: cell-based, human; conditions: for IC50: 72 hrs exposure, SRB; for growth inhibition of 22RV1 cells (in words): EGFR negative cell line, 72 hrs, FIG. 2 and 3
Excerpt: as §1, §3, §4

LNCaP = experiment: Cell growth inhibition by SRB method; format: cell-based, human; conditions: for IC50: Homo sapiens, LNCaP, 72 hrs exposure, SRB
Excerpt: as §1, §3, §4

tested cancer cell lines = experiment: Cell growth inhibition by SRB method, tested cancer cell lines overall; format: cell-based, human; conditions: data not provided
Excerpt: as §1, §3, §4

[1] = test system: HCC827 P and HCC827 TR cells; experiment: Reno647/Carboplatin combination, median effects (SRB, CalcuSyn); format: cell-based, human
Method: As described in Example 2.1. Two cell lines, HCC827-P and HCC827-TR (Tarceva-resistant HCC727 cells-an EGFRi resistant cell line with MET amplification) (Wang, Pursell et al. 2013) were used in the combination study. Exponentially growing HC[…] and HCC827-TR cells were seeded into 96-wells dishes at density of 3,000 cells per well. Twenty-four hours later, the cells were exposed concurrently to serial dilution of Reno647 or Carboplatin or Camptothecin alone or in combination at a ratio of 1:50 with Carboplatin or at ratio 1:1 with Camptothecin for 3 days. Reno647 were concurrently and sequentially with paclitaxel (Taxol) at ratio of 200:1 for 6 days. For sequential exposure, the cells were treated with Reno647 for 3 days, after removal of the drug containing medium, the cells were treated with Taxol for additional 3 days, or the cells were treated by Taxol first followed by the treatment with Reno 647. After incubation for 6 days, the cell growth was measured by SRB as described previously in Example 2.1 section, and the percentages of inhibition (1-T/C) % were calculated, and data were analyzed by a PC program, CalcuSyn, Biosoft (edited by T.-C. Chou, Memorial Sloan-Kettering Cancer Center, New York, and M. P. Hayball, at Cambridge, UK, 1996). The computer-calculated combination index (CI) was used to judge the outcomes of a combination: […] It has long been accepted that chemotherapy provided some benefit for patients with non-small-cell lung cancer (NSCLC) in terms of quality of life and symptomatology as well as modest improvements in survival. […] Cell growth was determined by SRB as described above.

ACHN = experiment: Cell growth inhibition by SRB method; format: cell-based, human; conditions: 72 hrs exposure
Excerpt: as §1, §3, §4

C#Cc1cccc(Nc2ncnc3cc(OCCOC)c(NC(=O)c4ccc(Cl)c([N+](=O)[O-])c4)cc23)c1 [Reno648, 4-Chloro-N-[4-(3-ethynyl-phenylamino)-7-(2-methoxy-ethoxy)-quinazolin-6-yl]-3-nitro-benzamide]
IC50 (HCC827OR16; Homo sapiens): > 5 µM | IC50 (HCC827P; Homo sapiens): 150 nM | IC50 (HCC827TR16): > 5 µM | IC50 (22RV1; Homo sapiens, 22Rv1): > 5 µM | IC50 (LNCaP): > 5 µM | activities against all tested cancer cells lines compared with NK-2206 and MLN8237 (tested cancer cell lines): better activities

N.N.O=C([O-])C1(C(=O)[O-])CCC1.[Pt+2] [Carboplatin, reference compound]
dose reduction in combination ([1]; Reno647:Carboplatin 1:50): 2 fold | median effects, two drugs combined ([1]; Reno647:Carboplatin 1:50, concurrent, cell line not stated): 3.38 µM | median effects, drug alone ([1]; single agent, cell line not stated): 8.39 µM

O=C(c1cc(Cc2n[nH]c(=O)c3ccccc23)ccc1F)N1CCN(C(=O)C2CC2)CC1 [AZD2281, reference compound]
growth inhibition of HCC827P cells (in words) (HCC827P; EGFR positive cell line, 72 hrs, FIG. 3): no activity | growth inhibition of 22RV1 cells (in words) (22RV1): significantly inhibited

C#Cc1cccc(Nc2ncnc3cc(OCCOC)c(NC(=O)c4ccc(I)c([N+](=O)[O-])c4)cc23)c1 [Reno649, 4-Iodo-N-[4-(3-ethynyl-phenylamino)-7-(2-methoxy-ethoxy)-quinazolin-6-yl]-3-nitro-benzamide]
IC50 (HCC827OR16; Homo sapiens): 1.8 µM | IC50 (HCC827P; Homo sapiens): 200 nM | IC50 (HCC827TR16): > 5 µM | IC50 (22RV1; Homo sapiens, 22Rv1): 2.3 µM | IC50 (LNCaP): > 5 µM | activities against all tested cancer cells lines compared with NK-2206 and MLN8237 (tested cancer cell lines): better activities

C#Cc1cccc(Nc2ncnc3cc(OCCOC)c(NC(=O)c4ccc(Br)c([N+](=O)[O-])c4)cc23)c1 [Reno636, 4-Bromo-N-[4-(3-ethynyl-phenylamino)-7-(2-methoxy-ethoxy)-quinazolin-6-yl]-3-nitro-benzamide]
IC50 (HCC827OR16; Homo sapiens): > 5 µM | IC50 (HCC827P; Homo sapiens): 200 nM | IC50 (HCC827TR16): > 5 µM | IC50 (22RV1; Homo sapiens, 22Rv1): > 5 µM | IC50 (ACHN; Homo sapiens, ACHN): > 5 µM | activities against all tested cancer cells lines compared with NK-2206 and MLN8237 (tested cancer cell lines): better activities

C#Cc1cccc(Nc2ncnc3cc(OCCOC)c(OCCOC)cc23)c1 [Tarceva, reference compound]
IC50 HCC827OR16 (HCC827OR16): almost unmeasurable | IC50 (HCC827OR16; Homo sapiens): > 5 µM | IC50 (HCC827P; Homo sapiens): < 200 nM | IC50 (HCC827TR16): > 5 µM | growth inhibition of 22RV1 cells (in words) (22RV1): relatively weak response | IC50 (22RV1; Homo sapiens, 22Rv1): > 5 µM | IC50 (ACHN; Homo sapiens, ACHN): 0.625 µM | growth inhibition of LNCaP cells (in words) (LNCaP; 72 hrs, FIG. 2): relatively weak response | IC50 (LNCaP): > 5 µM

(3-Ethynyl-phenyl)-[6-(2-methoxy-ethoxy)-7-nitro-naphthalen-1-yl]-amine [Reno635]
IC50 (HCC827OR16): > 5 µM | IC50 (HCC827P): > 5000 nM | IC50 (22RV1): 5 µM | IC50 (ACHN): 3.75 µM

C=CC(=O)Nc1cc(Nc2nccc(-c3cn(C)c4ccccc34)n2)c(OC)cc1N(C)CCN(C)C [AZD9291, reference compound]
IC50 (HCC827OR16; Homo sapiens): 2 µM | IC50 (HCC827P; Homo sapiens): < 200 nM | IC50 (HCC827TR16): 1.2 µM | IC50 (22RV1; Homo sapiens, 22Rv1): 0.65 µM | IC50 (LNCaP): 2 µM
